Ends that are not written are not given here.
Assays:
Assay type in all cases: cell-based
[1] = test system: HEL cell binding to human ICAM-4Fc; assay: Cell adhesion assay: peptide inhibition of HEL cell binding to human ICAM-4Fc; details: for input cells bound expressed as a percentage of binding to human ICAM-4Fc in the absence of peptides: FIG. 16, human ICAM-4Fc coated at 2.5 μg/ml, peptides 750 μM each, EDTA 2 mM, mean of two assays; for input cells bound expressed as a percentage of binding to ICAM-4Fc in the absence of peptides: FIG. 8, human ICAM-4Fc coated at 5 μg/ml, peptides 500 μM each, mean of three assays
Experimental: (§1) Cell adhesion assays were performed as described in Spring et al. 2001 (supra). Immulon4 96 well plates (Dynex Technologies, Billingshurst, United Kingdom) were coated with 1 μg/well goat-antihuman-Fc (Sigma, Poole, United Kingdom) for 24 hours at 4° C., washed three times with PBS and coated with an Fc fusion ICAM-4 protein for 18 hours at 4° C. before blocking with 0.4% BSA PBS for 2 hours at 22° C. Cells were labelled with 10 μg/ml 2′,7′-bis-(2-carboxyethyl)-5-(and-6-) carboxyfluorescein acetoxymethyl ester in assay buffer (IMEM, 2 mM EGTA, 10 μg/ml human ivIgG) for 15 minutes at 37° C. HT1080 cells were activated with 80 μM phorbol myristate acetate prior to both cells being washed with assay buffer containing 2 mM Mn^2+. Cells, at 5×10^4 cells per well, were added to the ICAM-4Fc-coated plates for 30 minutes at 37° C., prior to being given repeated washes in assay buffer and read on a fluorescence microplate reader (excitation 485 nm, emission 530 nm). The percentage of bound cells was calculated after each wash. […] In peptide inhibition studies the appropriate ICAM-4Fc coating concentration for each cell line was pre-determined by titration of ICAM-4Fc and the lowest concentration at which maximal binding was achieved was used to coat the plates

[2] = test system: erythroblast adhesion to ICAM-4; assay: Peptide inhibition of erythroblast adhesion to ICAM-4; details: FIG. 19; 5 μg/ml ICAM-4; 5 μg/ml TS2/16 beta 1 activating antibody; peptides 500 μM
Experimental: We have utilised the blocking ICAM-4 peptides (i.e., SEQ ID NOs: 9, 10, 11 and 13—see Example 1) in order to inhibit the adhesion of day 4 erythroblasts to ICAM-4 (see FIG. 19). Erythroblast cultures were initiated from CD34 positive cells purified from pooled buffy coat residues (obtained from the National Blood Service, Bristol, UK) and maintained as described in Southcott et al. (1999, Blood 93: 4425-4435). Cell adhesion assays were performed as described in Example 1 above. Immulon-4 96 well plates (Dynes Technologies, Billingshurst, UK) were coated with 1 μg/well goat-antihuman-Fc (Sigma, Poole, UK) for 24 hours at 4° C., washed three times with PBS and coated with 0.25 μg/well Fc fusion ICAM-4 protein (ICAM-4Fc) for 18 hours at 4° C. before blocking with 0.4% BSA PBS for 2 hours at 22° C. Erythroblasts were labelled with 10 μg/ml 2′,7′-bis-(2-carboxyethyl)-5-(and-6-)carboxyfluorescein acetoxymethyl ester (Sigma, Poole, UK) in assay buffer (Iscoves modified Eagle medium, 2 mM EGTA, 0.1% BSA, 10 μg/ml Immune globulin intravenous (human) (Cutter Biological, Newbury, Berks, UK)) for 15 minutes at 37° C. Erythroblasts were washed with assay buffer containing 2 mM Mn^2+. Erythroblasts, at 5×10^4 cells per well, were added to the ICAM-4Fc-coated plates for 30 minutes at 37° C., prior to being cyclically read on a fluorescence microplate reader (excitation 485 nm, emission 530 nm) and washed in assay buffer. The percentage of bound cells was calculated after each wash Peptide inhibition was performed by incubating the cells with 500 μM peptide and 5 μg/ml TS2/16 (beta 1 activating antibody (IBGRL) at 0° C. for 15 minutes before their addition to the ICAM-4Fc coated plates.

[3] = test system: neutrophil adhesion to ICAM-4; assay: Peptide and antibody inhibition of neutrophil adhesion to ICAM-4; details: FIG. 20; 2.5 μg/ml ICAM-4; 10 μg/ml blocking antibodies; peptides 500 μM
Experimental: Utilising blocking β integrin subunit antibodies and our blocking ICAM-4 peptides (i.e., SEQ ID NOs: 9, 10, 11 and 13—see Example 1) in a microplate neutrophil adhesion assay. Neutrophils were purified from buffy coats (obtained from the National Blood Service, Bristol, UK) as described in Henderson et al. (1987, Biochem. J. 246: 325-329). Cell adhesion assays were performed as described in Example 1 above. Immulon-4 96 well plates (Dynes Technologies, Billingshurst, UK) were coated with 1 μg/well protein A (Sigma, Poole, UK) for 24 hours at 4° C., washed three times with PBS and coated with 0.125 μg/well Fc fusion ICAM-4 protein (ICAM-4Fc) for 18 hours at 4° C. before blocking with 0.4% BSA PBS for 2 hours at 22° C. Neutrophils were labelled with 10 μg/ml 2′,7′-bis-(2-carboxyethyl)-5-(and-6-)carboxyfluorescein acetoxymethyl ester (Sigma, Poole, UK) in assay buffer (Iscoves modified Eagle medium, 2 mM EGTA, 0.1% BSA for 15 minutes at 37° C. Neutrophils were washed with assay buffer containing 2 mM Mn^2+. Neutrophils, at 5×10^5 cells per well, were added to the ICAM-4Fc-coated plates for 10 minutes at 37° C., prior to being cyclically read on a fluorescence microplate reader (excitation 485 nm, emission 530 nm) and washed in assay buffer. The percentage of bound cells was calculated after each wash. […]

[4] = test system: HEL cell binding to murine ICAM-4Fc; assay: Cell adhesion assay: peptide inhibition of HEL cell binding to murine ICAM-4Fc; details: FIG. 12, murine ICAM-4Fc coated at 5 μg/ml, peptides 500 μM each, mean of two assays
Experimental: Cell adhesion assays were performed as described in Spring et al. 2001 (supra). Immulon4 96 well plates (Dynex Technologies, Billingshurst, United Kingdom) were coated with 1 μg/well goat-antihuman-Fc (Sigma, Poole, United Kingdom) for 24 hours at 4° C., washed three times with PBS and coated with an Fc fusion ICAM-4 protein for 18 hours at 4° C. before blocking with 0.4% BSA PBS for 2 hours at 22° C. Cells were labelled with 10 μg/ml 2′,7′-bis-(2-carboxyethyl)-5-(and-6-) carboxyfluorescein acetoxymethyl ester in assay buffer (IMEM, 2 mM EGTA, 10 μg/ml human ivIgG) for 15 minutes at 37° C. HT1080 cells were activated with 80 μM phorbol myristate acetate prior to both cells being washed with assay buffer containing 2 mM Mn^2+. Cells, at 5×10^4 cells per well, were added to the ICAM-4Fc-coated plates for 30 minutes at 37° C., prior to being given repeated washes in assay buffer and read on a fluorescence microplate reader (excitation 485 nm, emission 530 nm). The percentage of bound cells was calculated after each wash. Peptide inhibition was performed by incubating the cells with 500 μM peptide at 0° C. for 15 minutes ahead of their addition, still in the presence of 500 μM peptide to the ICAM-4Fc coated plates. In peptide inhibition studies the appropriate ICAM-4Fc coating concentration for each cell line was pre-determined by titration of ICAM-4Fc and the lowest concentration at which maximal binding was achieved was used to coat the plates

[5] = test system: HT1080 cell binding to human ICAM-4Fc; assay: Cell adhesion assay: peptide inhibition of HT1080 cell binding to human ICAM-4Fc
Experimental: as §1

[6] = test system: HT1080 cell binding to murine ICAM-4Fc; assay: Cell adhesion assay: peptide inhibition of HT1080 cell binding to murine ICAM-4Fc; details: FIG. 14, murine ICAM-4Fc coated at 5 μg/ml, peptides 500 μM each, mean of two assays
Experimental: as §1

Compound	input cells bound expressed as a percentage of binding to human ICAM-4Fc in the absence of peptides [1]	effect on adhesion of day 4 erythroblasts to ICAM-4 [2]	effect on adhesion between neutrophils and ICAM-4 [3]	input cells bound expressed as a percentage of binding to ICAM-4Fc in the absence of peptides [1]	input cells bound expressed as a percentage of binding to murine ICAM-4Fc in the absence of peptides [4]	input cells bound expressed as a percentage of binding to human ICAM4Fc in the absence of peptides ([5]; FIG. 10, human ICAM-4Fc coated at 7.5 μg/ml, peptides 500 μM each, mean of three assays)	input cells bound expressed as a percentage of binding to human ICAM-4Fc in the absence of peptides ([5]; FIG. 18, human ICAM-4Fc coated at 5 μg/ml, peptides 750 μM each, EDTA 2 mM, mean of two assays)	input cells bound expressed as a percentage of binding to murine ICAM-4Fc in the absence of peptides [6]
aWssLahcl (AWSSLAHCL; not fully specified (some residues)) [aWssLahcl peptide]	50%	inhibit adhesion	inhibit this interaction					
tRwATSRit (TRWATSRIT; not fully specified (residues 1, 3, 8, 9)) [tRwATSRit peptide]	58%	inhibit adhesion	inhibit this interaction	58%	58%			
rqgktlrgp (RQGKTLRGP; not fully specified (some residues); printed as rqgktlrgp) [rqgktlrgp peptide, reference compound]	105%	had no effect		107%	94%			
svpFWVrms (SVPFWVRMS; not fully specified (residues 1, 2, 3, 7, 8, 9)) [svpFWVrms peptide]	64%	had no effect		61%	67%			
O=C(O)CN(CCN(CC(=O)O)CC(=O)O)CC(=O)O [EDTA, reference compound]	26%			1%	8%	6%	10%	1%

Reference: US20060252116A1, “Icam-4 binding sites” (priority 2002, published 2006)
